Key:
[1] = biological target: T1, P2X purinoceptor 7 (Homo sapiens) (UniProt Q99572); test: Antagonist activity at P2X7 receptor in human LPS-stimulated monocytes assessed as inhibition of ATP-induced IL1-beta release at 5 uM by ELISA; format: functional, cell-based
T1 sequence (whole entry): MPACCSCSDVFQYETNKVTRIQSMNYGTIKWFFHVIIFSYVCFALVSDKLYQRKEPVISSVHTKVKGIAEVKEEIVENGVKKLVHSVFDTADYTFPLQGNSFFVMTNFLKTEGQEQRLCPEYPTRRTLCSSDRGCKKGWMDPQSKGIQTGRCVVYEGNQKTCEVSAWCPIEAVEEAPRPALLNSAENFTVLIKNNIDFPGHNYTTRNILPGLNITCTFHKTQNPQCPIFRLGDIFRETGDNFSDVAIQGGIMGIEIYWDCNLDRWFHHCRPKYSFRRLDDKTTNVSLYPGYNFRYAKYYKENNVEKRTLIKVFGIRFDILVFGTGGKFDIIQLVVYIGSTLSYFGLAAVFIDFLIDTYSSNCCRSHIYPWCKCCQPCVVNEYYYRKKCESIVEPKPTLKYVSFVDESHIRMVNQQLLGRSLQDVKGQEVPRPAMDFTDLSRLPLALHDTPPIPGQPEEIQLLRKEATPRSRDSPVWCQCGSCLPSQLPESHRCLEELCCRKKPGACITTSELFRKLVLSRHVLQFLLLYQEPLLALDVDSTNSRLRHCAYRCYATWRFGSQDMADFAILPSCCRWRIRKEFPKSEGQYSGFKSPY

[2] = biological target: T2, P2X purinoceptor 7 (Homo sapiens, UniProt Q99572); test: (§1) Antagonist activity at P2X7 receptor in human LPS-stimulated monocytes assessed as inhibition of ATP-induced IL1-beta release by ELISA in presence of human blood; format: functional, cell-based
T2 sequence (Q99572 whole entry): T1 sequence (whole entry)

[3] = biological target: T2, P2X purinoceptor 7; test: Antagonist activity at P2X7 receptor in human LPS-stimulated monocytes assessed as inhibition of ATP-induced IL1-beta release by ELISA; format: functional, cell-based
[4] = test system: Liver microsomes; test: Metabolic stability in human liver microsomes assessed as compound turnover; format: ADME, Microsome
[5] = test system: Plasma; test: (§2) Fraction unbound in human plasma; format: ADME, cell-free
[6] = in vivo; settings: rat, plasma
[7] = Apparent permeability from apical to basolateral side of human Caco2 cells; format: ADME, cell-based; settings: Caco-2
[8] = Apparent permeability from basolateral to apical side of human Caco2 cells; format: ADME, cell-based; settings: Caco-2
[9] = test system: Hepatocyte; test: Metabolic stability in human hepatocytes assessed as compound turnover; format: ADME, cell-based
[10] = Plasma protein binding in human; format: ADME, cell-free; settings: read-out: PPB
[11] = biological target: T1, P2X purinoceptor 7 (Homo sapiens); test: as §1; format: functional, cell-based
[12] = biological target: T2, P2X purinoceptor 7; test: Antagonist activity at P2X7 receptor expressed in HEK293 cells assessed as inhibition of ATP-induced YOPRO-1 uptake; format: functional, cell-based
[13] = Cmax in rat at 5 mg/kg, po; format: ADME, organism-based; design: dose 5 mg/kg, route oral; settings: in vivo
[14] = as §2; format: ADME, cell-free
[15] = Volume of distribution at steady state in dog; format: ADME, organism-based, Canis lupus familiaris; settings: in vivo, read-out: Vdss
[16] = in vivo; settings: dog, plasma
[17] = Half life in dog; format: ADME, organism-based, Canis lupus familiaris; settings: in vivo
[18] = Volume of distribution at steady state in rat; format: ADME, organism-based; settings: in vivo, read-out: Vdss
[19] = Volume of distribution at steady state in monkey; format: ADME, organism-based, Macaca mulatta; settings: rhesus monkey, in vivo; read-out: Vdss
[20] = Oral bioavailability in rat at 5 mg/kg; format: ADME, organism-based; settings: in vivo
[21] = Cmax in monkey; format: ADME, organism-based, Macaca mulatta; settings: rhesus monkey, in vivo
[22] = Half life in monkey; format: ADME, organism-based, Macaca mulatta; settings: rhesus monkey, in vivo
[23] = Half life in rat; format: ADME, organism-based; settings: in vivo
[24] = Cmax in dog; format: ADME, organism-based, Canis lupus familiaris; settings: in vivo
[25] = Oral bioavailability in monkey; format: ADME, organism-based, Macaca mulatta; settings: rhesus monkey, in vivo
[26] = Plasma clearance in monkey; settings: rhesus monkey
[27] = Oral bioavailability in dog; format: ADME, organism-based, Canis lupus familiaris; settings: in vivo

O=C(NCc1ccccc1)c1cc(-n2ncc(=O)[nH]c2=O)ccc1Cl
inhibition [1]: 15%

CC(C)Cn1c(=O)cnn(-c2ccc(Cl)c(C(=O)NCC3(O)CCCCCC3)c2)c1=O
IC50 [2]: 200 nM
IC50 [3]: 34 nM

CCCCC(CC)CNC(=O)c1cccc(-n2ncc(=O)[nH]c2=O)c1 (stereo not drawn)
inhibition [1]: 0%

O=C(NCCc1cccnc1)c1cc(-n2ncc(=O)[nH]c2=O)ccc1Cl
inhibition [1]: 22%

CCOCCCNC(=O)c1cc(-n2ncc(=O)[nH]c2=O)ccc1Cl
inhibition [1]: 2%

CCCOCCNC(=O)c1cc(-n2ncc(=O)[nH]c2=O)ccc1Cl
IC50 [3]: > 5000 nM

CCn1c(=O)cnn(-c2ccc(Cl)c(C(=O)NCC3(O)CCCCCC3)c2)c1=O
IC50 [2]: 185 nM
IC50 [3]: 86 nM

O=C(NCCc1ccccc1Cl)c1cc(-n2ncc(=O)[nH]c2=O)ccc1Cl
Stability [4]: Stable
Fu [5]: 0.005
clearance [6]: 9.5 mL/min/kg
Papp A→B [7]: 10 ×10⁻⁶ cm/s
Papp B→A [8]: 21 ×10⁻⁶ cm/s
Stability [9]: Stable
fraction unbound [10]: < 0.005
IC90 [11]: > 10000 nM
IC50 [2]: > 10000 nM
IC50 [12]: 300 nM
IC50 [3]: 290 nM
Cmax [13]: 2000 ng/mL

O=C(NCC1(O)CCCCCC1)c1cc(-n2ncc(=O)[nH]c2=O)ccc1Cl
fraction unbound [14]: 0.18
clearance [6]: 20 mL/min/kg
Vd [15]: 0.6 L/kg
clearance [16]: 3.8 mL/min/kg
half-life [17]: 3.8 h
Vd [18]: 8.5 L/kg
Vd [19]: 1.5 L/kg
IC90 [11]: 1000 nM
IC50 [2]: 447 nM
bioavailability [20]: 75%
Cmax [21]: 600 ng/mL
IC50 [12]: 15 nM
half-life [22]: 3.4 h
half-life [23]: 3.2 h
Cmax [24]: 7400 ng/mL
IC50 [3]: 83 nM
bioavailability [25]: 72%
clearance [26]: 21 mL/min/kg
Cmax [13]: 1300 ng/mL
bioavailability [27]: 84%

O=C(NCC1CCCCC1)c1cc(-n2ncc(=O)[nH]c2=O)ccc1Cl
IC50 [3]: 1300 nM

CCCCCCNC(=O)c1cc(-n2ncc(=O)[nH]c2=O)ccc1Cl
IC50 [3]: 3600 nM

COCCn1c(=O)cnn(-c2ccc(Cl)c(C(=O)NCC3(O)CCCCCC3)c2)c1=O
IC50 [2]: 71 nM
IC50 [3]: 19 nM

O=C(NCCc1ccccn1)c1cc(-n2ncc(=O)[nH]c2=O)ccc1Cl
inhibition [1]: 15%

O=C(NCCCc1ccccc1)c1cc(-n2ncc(=O)[nH]c2=O)ccc1Cl
inhibition [1]: 0%

CCCCC(CC)COC(=O)c1cc(-n2ncc(=O)[nH]c2=O)ccc1Cl (stereo not drawn)
inhibition [1]: 19%
